Tests used:
[1] = tested on: Oxygen/Glucose Deprived RGCs (retinal ganglion cells); experiment: Protection of oxygen/glucose deprived (OGD) retinal ganglion cells, EC50; conditions: overall judgement
Protocol: Each compound was added to control cells and to cells deprived of oxygen and glucose for the time period from 30 minutes prior to OGD, during OGD, and for 24 and 48 hours after OGD.
RGCs from postnatal day 8 (P8) Sprague-Dawley rats were purified as previously described (Barres et al., 1988; Meyer-Franke et al., 1995). Purified retinal ganglion cells were plated onto tissue culture plastic precoated with poly-D-lysine and merosin, and cultured in serum-free Neurobasal medium (Gibco) containing various supplements.
Approximately 5,000 purified RGCs were cultured in 96-well plates (Falcon), precoated with poly-D-lysine (PDL, 70 kD, 10 mg/ml; Sigma) and merosin (2 mg/ml; Gibco). The RGCs were cultured in serum-free Neurobasal medium (Brewer et al., 1993; Gibco) containing Sato-Bottenstein and B27 (Gibco) supplement, insulin (Sigma, 5 mg/ml), brain-derived neurotrophic factor (BDNF, 25 ng/ml; Preprotech), ciliary neurotrophic factor (CNTF, 20 ng/ml; Preprotech) and forskolin (10 mM, Sigma). The percentage of surviving cells was assessed at 3, 7, and 14 days by the MTT assay.
Retinal ganglion cells were grown in 96-well plates for 5 days in serum-free medium as described above. On the sixth day cells were washed three times in a salt solution, e.g. Earle's balanced salt solution (EBSS, Gibco), containing glucose for control cells, and lacking glucose for test cells (oxygen/glucose-deprived cells). Control cells were further incubated in a 5% CO2 incubator while OGD cells were deprived of oxygen in an anaerobic chamber (for 3 hours). Test compounds were added to control cells and OGD cells for the time period from 30 minutes prior to OGD, during OGD, and for 24 and 48 hours after OGD.
After 3 hours OGD, control and test cells were transferred to growth medium with glucose and cultured an additional 48 hours in a 5% CO2 incubator, followed by a determination of cell viability using MTT, propidium iodide and annexin assays.
For the cell viability assay, MTT was added to culture and incubated at 37° C. for 1 hr. […] Viable and dead cells are counted by bright field microscopy at various times, e.g. 24, 48, or 72 hours after oxygen/glucose and/or growth factor deprivation. All values are reported as the mean (average) +/− the standard error of the mean (SEM) for at least three replicate cultures.

[2] = tested on: OGD cells (retinal ganglion cells); experiment: Increase in survival of OGD cells at fixed concentrations (similar assay); assay type: cell-based, rat; set-up: key: +: up to 50% increase; ++: 50%-100% increase; +++: >100% increase; —: negligible or no increase

SMILES | Effectiveness in protecting OGD RGCs (in words, from Tables 5 and 6) [1] | Percent Increase in Survival over OGD Control Cells ([2]; Concn 0.01 μM) | Percent Increase in Survival over OGD Control Cells ([2]; Concn 0.1 μM) | Percent Increase in Survival over OGD Control Cells ([2]; Concn 1 μM) | Percent Increase in Survival over OGD Control Cells ([2]; Concn 10 μM) | Percent Increase in Survival over OGD Control Cells ([2]; Concn .1 μM) | Percent Increase in Survival over OGD Control Cells ([2]; Concn 0.001 μM)
O=C(c1ncc[nH]1)c1ncc[nH]1 [SNX 951, di(imidazol-2-yl)methanone] | very effective |  |  |  |  |  | 
O=[N+]([O-])c1ccc2[nH]c(Cc3nc4ccc([N+](=O)[O-])cc4[nH]3)nc2c1 [SNX 897, 5,5′-dinitro*] |  | ++ (50%-100% increase) | ++ (50%-100% increase) | ++ (50%-100% increase) |  |  | 
Cc1nc(-c2nc(C)c(C)[nH]2)[nH]c1C [SNX 939, 2,2′-bis(4,5-dimethylimidazole)] | very effective |  |  |  |  |  | 
c1ccc2[nH]c(Cc3nc4ccccc4[nH]3)nc2c1 [SNX 857] |  | + (up to 50% increase) | +++ (>100% increase) |  | +++ (>100% increase) | ++ (50%-100% increase) | 
NC(c1ncc[nH]1)c1ncc[nH]1 [SNX 949, 2,2′-(aminomethylene)bisimidazole] | very effective |  |  |  |  |  | 
Nc1cccc2[nH]c(Cc3nc4cc(Cl)ccc4[nH]3)nc12 [SNX 923, 2-[(5-Chloro-1H-benzimidazol-2-yl)methyl]-1H-benzimidazol-4-amine] | more effective overall than the unsubstituted compound | +++ (>100% increase) | +++ (>100% increase) | +++ (>100% increase) | +++ (>100% increase) |  | +++ (>100% increase)
Cn1c(Cc2nc3ccccc3n2C)nc2ccccc21 [SNX 910, 1,1′-dimethyl*] |  | ++ (50%-100% increase) | ++ (50%-100% increase) |  | + (up to 50% increase) | +++ (>100% increase) | 
CN1CCN=C1CCc1nc2ccccc2n1C [SNX 1771] | very effective |  |  |  |  |  | 
c1cnc2[nH]c(Cc3nc4cccnc4[nH]3)nc2c1 [SNX 911, 2,2′-methylenebis(4-azabenzimidazole)] | very effective |  |  |  |  |  | 
Nc1ccc2[nH]c(Cc3nc4ccc(N)cc4[nH]3)nc2c1 [SNX 898, 5,5′-diamino*] |  | + (up to 50% increase) | + (up to 50% increase) | + (up to 50% increase) | — |  | 
c1ccc2[nH]c(CC3=NCCCN3)nc2c1 [SNX 1818, 2-(3,4,5,6-tetrahydropyrimidin-2-yl)methyl benzimidazole] | very effective |  |  |  |  |  | 
Oc1cccc2[nH]c(Cc3nc4c(O)cccc4[nH]3)nc12 [SNX 909, 4,4′-dihydroxyl*] | more effective overall than the unsubstituted compound | + (up to 50% increase) | ++ (50%-100% increase) |  | + (up to 50% increase) | +++ (>100% increase) | 
c1ccc2[nH]c(CC3=NCCCCN3)nc2c1 [SNX 1819, 2-(4,5,6,7-tetrahydro-1,3-diazepin-2-yl)methyl benzimidazole] | very effective |  |  |  |  |  | 
CN1CCN=C1Cc1nc2ccccc2[nH]1 [SNX 1019, 2-(1-methyl-4,5-dihydroimidazol-2-yl)methyl benzimidazole] | very effective |  |  |  |  |  | 
O=[N+]([O-])c1cccc2[nH]c(Cc3nc4ccccc4[nH]3)nc12 [SNX 900, 2-(1H-benzimidazol-2-ylmethyl)4-nitro-1H-benzimidazole] | more effective overall than the unsubstituted compound | ++ (50%-100% increase) | +++ (>100% increase) |  | + (up to 50% increase) | ++ (50%-100% increase) | 
N#Cc1ccc2[nH]c(Cc3nc4ccc(C#N)cc4[nH]3)nc2c1 [SNX 931, 5,5′-dicyano*] |  | + (up to 50% increase) | + (up to 50% increase) | — | ++ (50%-100% increase) |  | —
Fc1cccc2[nH]c(Cc3nc4c(F)cccc4[nH]3)nc12 [SNX 930, 4,4′-difluoro*] | more effective overall than the unsubstituted compound | +++ (>100% increase) | + (up to 50% increase) | ++ (50%-100% increase) | ++ (50%-100% increase) |  | + (up to 50% increase)
Clc1ccc2[nH]c(Cc3nc4ccccc4[nH]3)nc2c1 [SNX 899, 5-chloro*] |  | + (up to 50% increase) | ++ (50%-100% increase) | ++ (50%-100% increase) | + (up to 50% increase) | ++ (50%-100% increase) | 
Nc1cccc2[nH]c(Cc3nc4c(N)cccc4[nH]3)nc12 [SNX 903, 4,4′-diamino*] | more effective overall than the unsubstituted compound | +++ (>100% increase) | +++ (>100% increase) |  | ++ (50%-100% increase) | +++ (>100% increase) | 
CC(c1nc2ccccc2[nH]1)c1nc2ccccc2[nH]1 [SNX 925, 2,2′-ethylidenebisbenzimidazole] | very effective | +++ (>100% increase) | +++ (>100% increase) | +++ (>100% increase) | +++ (>100% increase) |  | ++ (50%-100% increase)
c1ccc(CN2CCN=C2Cc2nc3ccccc3[nH]2)cc1 [SNX 979, 2-(1-benzyl-4,5-dihydroimidazol-2-yl)methyl benzimidazole] | very effective |  |  |  |  |  | 
CC1(C)CN=C(Cc2nc3ccccc3[nH]2)N1 [SNX 1020, 2-(5,5-Dimethyl-4,5-dihydro-1H-imidazol-2-ylmethyl)-1H-benzimidazole] | very effective |  |  |  |  |  | 
c1ccc2[nH]c(CC3=NCCN3)nc2c1 [SNX 978, 2-(4,5-dihydroimidazol-2-yl)methyl benzimidazole] | very effective |  |  |  |  |  | 
CN1CC[N+](C)=C1Cc1nc2ccccc2[nH]1 [SNX 980, 2-(1,3-Dimethyl-4,5-dihydro-1H-imidazol-2-ylmethyl)-1H-benzimidazole] | very effective |  |  |  |  |  | 

— patent US6541486B1, “Bis-benzimidazole compounds and analogs thereof for inhibiting cell death” (Elan Pharma International Ltd., priority 1999, dated 2003)
